Test system: normal mice (BALB/c)
Test: Glucose challenge after oral administration of polypeptide, normal mice; blood sugar value by blood sugar meter
Type: in vivo
Conditions: 50 mg/kg-body weight oral; for Inhibition Rate (%) toward the blood sugar values: BALB/c fasted 18 hrs, 4 g/kg glucose i.p. after 15 minutes, blood sugar after 180 minutes, relative to water control; for effect of reducing the blood sugar values (in words): BALB/c, comment on Tables 4 and 5
Source text: The following materials were adopted in the examples: • (A) Experimental subjects: two strains of mice, BALB/c (the metabolism of blood sugar is normal) and ob/ob (spontaneous diabetes type 2), were used to conduct experiments, and they were provided by the National Laboratory Animal Center, Taiwan. • (B) Polypeptides: polypeptides with amino acid sequences shown in Table 1 were produced by the solid phase synthesis method.
Five normal mice (BALB/c) in each of the nine groups fasted for 18 hrs, and then, respectively, a solution (20 μL) of 50 mg/kg-body weight of the polypeptide of SEQ ID NO: 1, a solution (20 μL) of 50 mg/kg-body weight of the polypeptide of SEQ ID NO: 2, a solution (20 μL) of 50 mg/kg-body weight of the polypeptide of SEQ ID NO: 3, a solution (20 μL) of 50 mg/kg-body weight of the polypeptide of SEQ ID NO: 4, a solution (20 μL) of 50 mg/kg-body weight of the polypeptide of SEQ ID NO: 5, a solution (20 μL) of 50 mg/kg-body weight of the polypeptide of SEQ ID NO: 6, a solution (20 μL) of 50 mg/kg-body weight of the polypeptide of SEQ ID NO: 7, a solution (20 μL) of 50 mg/kg-body weight of the polypeptide of SEQ ID NO: 8, or a solution (20 μL) of 50 mg/kg-body weight of the polypeptide of SEQ ID NO:9, was given to each mouse of each group of the experimental group by oral administration, while in the control group (five mice), each mouse was given water (20 μL). After 15 minutes, a solution of 4 g/kg-body weight of glucose was injected into the peritoneal cavity of each mouse to rapidly raise the blood sugar value of each mouse. After 180 minutes, the blood of each mouse was extracted from its tails, and the blood sugar value was determined by a blood sugar meter (Accu-Check Advantage, Roche, Germany). The blood sugar values of the mice of the experimental group were compared with those of the control group and were analyzed to obtain the relative inhibition rate of each of the polypeptides toward the blood sugar values, as shown in Table 4.
Five normal mice (BALB/c) in each of two groups fasted for 18 hrs, and then, respectively, a solution (20 μL) of 50 mg/kg-body weight of the polypeptide of SEQ ID NO: 10, or a solution (20 μL) of 50 mg/kg-body weight of the polypeptide of SEQ ID NO:11, was given to each mouse of each group of the experimental group by oral administration, while in the control group (five mice), each mouse was given water (20 μL). After 15 minutes, a solution of 4 g/kg-body weight of glucose was injected into the peritoneal cavity of each mouse to rapidly raise the blood sugar value of each mouse. After 180 minutes, the blood of each mouse was extracted from its tails, and the blood sugar value was determined by a blood sugar meter (Accu-Check Advantage, Roche, Germany). The blood sugar values of the mice of the experimental group were compared with those of the control group and were analyzed to obtain a relative inhibition rate of the polypeptides of SEQ ID NO:10 and SEQ ID NO:11 toward the blood sugar values, as shown in Table 5.

Row | Sequence | Inhibition Rate (%) toward the blood sugar values | effect of reducing the blood sugar values (in words) | Inhibition Rate (%) toward the blood sugar values (50 mg/kg) | Inhibition Rate (%) toward the blood sugar values (listed as SEQ ID NO:11, 50 mg/kg)
1 | DENRVRIWVDTVAKTPTIG (ORYZA SATIVA) [SEQ ID NO: 9] | 60.2 ± 14.1% | better effect of reducing the blood sugar values |  | 
2 | RVRVWVTERGIVAR (MOMORDICA …) [SEQ ID NO: 10] | 34.5 ± 8.8 % | can reduce the blood sugar values of the normal mice efficiently |  | 
3 | RVRVWVDENGIVISVPTIG (VITIS VINIFERA) [SEQ ID NO: 5] | 30.2 ± 31.3% |  |  | 
4 | RVRVWVNKKGKVIRVPRIG (CITRUS PARADISI) [SEQ ID NO: 6] | 26.2 ± 3.1% |  |  | 
5 | RVRVWVDEIRIVVRNPTAG (ARABIDOPSIS THALIANA) [SEQ ID NO: 8] | 25.5 ± 8.6% |  |  | 
6 | RVRVWVDSYGIVSMVPKIG (VITIS VINIFERA) [SEQ ID NO: 4] | 67.8 ± 9.1% | better effect of reducing the blood sugar values |  | 
7 | RVWVWINKDEIVYQVPTIG (MEDICAGO TRUNCATULA) [SEQ ID NO: 3] | 52.5 ± 14.9% |  |  | 
8 | RVRVWVDENGIVTRVPVIG (SAMBUCUS NIGRA) [SEQ ID NO: 7] | 56.3 ± 2.6% | better effect of reducing the blood sugar values |  | 
9 | RVRIWVNKRGLVVSPPRIG (CUCURBITA MAXIMA) [SEQ ID NO: 1] | 15.7 ± 6.9% |  |  | 
10 | RVRVWVTERGIVARPPTIG (MOMORDICA …) [SEQ ID NO: 11] |  | can reduce the blood sugar values of the normal mice efficiently | 51.9 ± 19.4 % | about 50%
11 | RVWVWVNSKGIVIRTPIIT (ZINNIA ELEGANS) [SEQ ID NO: 2] | 24.5 ± 2.3% |  |  | 
